Where two headings read alike, the source gives them in different places. Blank lines part the entries; values can stand above or below the compound they belong to.
Key:
[1] = Pharmacokinetics assays (plasma and brain); assay type: in vivo; design: AUC(0-t) / AUC(0-inf): concentration or dose not given beside the values; conditions: for Plasma/Brain Ratio: in vivo; for AUC(0-t): read-out: Plasma AUC last; for Cmax: species, dose and route not given
[2] = system: eIF4E Ser209 phosphorylation in Hela cells; test: MNK cell-based assay (AlphaScreen SureFire, eIF4E Ser209 phosphorylation); conditions: Homo sapiens, read-out: IC50 Hela
Method in brief: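 Hela cells (30,000/well) exposed to test compound in serum-free medium for 2 h at 37 °C, then lysed. Phospho-Ser209 eIF4E quantified by AlphaScreen SureFire; IC50 obtained by non-linear regression of signal versus log compound concentration.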

[3] = system: eIF4E phosphorylation in K562 cells; test: Western blot of eIF4E phosphorylation in K562 cells; assay type: cell-based; conditions: various concentrations, 24 h
Protocol: K562 cell line was obtained from the ATCC, and grown in RPMI supplemented with 10% FCS, L-glutamine, and penicillin/streptomycin.
Exponentially growing cells were plated at 2×10^5 cells/ml, and whole cell lysate processed for western blot analysis using antibodies recognizing eIF4E, phospho-eIF4E (Cell signaling Technology),

[4] = system: phospho-eIF4E S209 in BC-CML primary cells; test: Immunofluorescence of phospho-eIF4E in BC-CML primary cells; assay type: cell-based, human; conditions: 48 h
Excerpt: Cord Blood (CB) samples were purchased from the Singapore Cord Blood bank. CML samples were the Singapore General Hospital after signed informed consent under local IRB-approved procedures. MNCs were obtained using Ficoll separation, and CD34^+ cells selected by immunomagnetic beads (Miltenyi Biotech, Germany).
Cells (1×10^5) were cytospun onto glass slides, fixed with 4% paraformaldehye, and stained with mouse monoclonal antibodies against activated β-catenin (clone 8E7, Millipore, UK), or rabbit monoclonal antibodies against phospho-eIF4E S209 (EP2151Y, Abcam, UK). Slides were then stained with either PE-conjugated anti-mouse or FITC-conjugated anti-rabbit antibodies. Images were obtained with the use of a fluorescence microscope (Olympus IX71S1F3) at 40× magnification.

MNK1 = target: T1, MNK1 (Homo sapiens, UniProt Q9BUB5); test: In vitro MNK kinase assay (Caliper LabChip mobility shift), MNK1; assay type: biochemical; conditions: enzymatic; 1.2 mM ATP
T1 construct: recombinant kinase domains expressed in E. coli; fused on or other part: N-terminal GST tag, removed with PreScission protease before the test
Protocol: (§1) MNK1 and MNK2 inhibitor activity was determined using recombinant kinase domains expressed in E. coli. MNK1 and MNK2 were expressed as GST fusion proteins and the GST tag was removed using PreScission protease. After concentration to 10-15 mg/ml the proteins were flash frozen in liquid nitrogen and stored at −80° C.
(§2) This reaction mixture was then used immediately for the activation of the MNKs. The activation of the MNK1 was performed by incubating 5.0 μM of MNK1 with 0.3 μM of activated ERK2 and 500 μM ATP at 30° C. for 6 hours. The activation of MNK2 was performed by incubating 50 μM of MNK2 with 3.0 μM of activated ERK2 and 500 μM ATP at 30° C. for 2 hours. The activated MNKs were stored at −20° C. until required for assay.
(§3) Kinase assays were performed on the Caliper Life Sciences (Mountain View, Calif.) Microfluidics LabChip® Platform. Enzyme activity is analyzed by ‘sipping’ reactions from a microtitre plate into LabChip. The data signature is generated by the shift in mobility of non-phosphorylated peptide substrates and phosphorylated products by electrophoresis in the chip and detected by LED induced fluorescence. […] The data is analyzed by calculating the relative heights of the substrate and product peaks and the product/(product+substrate) peak ratio is reported.
(§4) The following buffers were used to assay kinase activity:
(§5) Reconstitution buffer: 10 mM HEPES/NaOH pH7.5, 0.003% Brij® L23, 0.004% TWEEN® 20.
(§6) Separation buffer: 100 mM HEPES/NaOH pH7.3, 0.02% Brij® L23, 5% DMSO, 0.1% CR3, 1 mM EDTA pH8.0.
(§7) The reaction was stopped by the addition of […] termination buffer.
(§8) Inhibition constants (IC50) were determined by plotting kinase activity versus log compound concentration and fitting with a non-linear regression algorithm using GraphPad Prism (GraphPad Software Inc.).

MNK2 = target: T2, MNK2 (Homo sapiens, UniProt Q9HBH9); test: In vitro MNK kinase assay (Caliper LabChip mobility shift), MNK2; assay type: biochemical; conditions: enzymatic; 250 μM ATP
T2 construct: GST (cleaved yes); made in house; host or cells: E. coli
Protocol: as §1, §2, §3, §4, §5, §6, §7, §8

[5] = system: K562 cells (myelogenous leukemia) over-expressing eIF4E; test: Cell cytotoxicity assay (CellTiter-Glo), K562; assay type: cell-based; conditions: for IC50: Homo sapiens, cell viability; for change of IC50 when treatment duration was extended from 48 hours to 6 days, K562: K562 cells over-expressing eIF4E
Protocol: (§9) Cancer cell lines, MV-4-11 (leukemia), P116.c139 (acute T cell leukemia) and D1.1 (acute T cell leukemia), were purchased from ATCC and cultured according to supplier's recommendations. K562 cells (myelogenous leukemia) over-expressing eIF4E, were also used for the cytotoxicity assay. For cells treated for 48 hours, 5000 cells were seeded in 70 μl of growth medium in black, flat-bottom 96-well plate. For cells treated for six days, 1000 cells were seeded in 70 μl of growth medium in black, flat-bottom 96-well plate. […] 50 μl of the diluted compounds was added to the cells and incubated at 37° C. in 5% CO2. After 48 hours or six days treatment, cell viability was determined by CellTiter-Glo Luminescent Cell Viability Assay (Promega, Madison, Wis.). 120 μl of the reagent was added to the cells and luminescence was measured using Tecan Safire Reader. Data was analysed with Graphpad Prism software and the figures represented indicate the half maximal inhibitory concentration (IC50). Error bars denote standard deviation (SD).

MV-4-11 (leukemia) = test: Cell cytotoxicity assay (CellTiter-Glo), MV-4-11; assay type: cell-based; conditions: Homo sapiens, cell viability
Protocol: as §9

[6] = system: D1.1 (acute T cell leukemia); test: Cell cytotoxicity assay (CellTiter-Glo), D1.1; assay type: cell-based; conditions: for IC50: T-cell, cell viability
Protocol: as §9

[7] = system: P116.c139 (acute T cell leukemia); test: Cell cytotoxicity assay (CellTiter-Glo), P116.c139; assay type: cell-based; conditions: for IC50: T-cell, cell viability
Protocol: as §9

[8] = system: eIF4E phosphorylation in BC GMPs; conditions: background; cited from earlier work
[9] = system: active nuclear beta-catenin in BC GMPs; conditions: background; cited from earlier work
[10] = system: CD34+BC cells (including those carrying T315I mutation); conditions: background; cited from earlier work
[11] = brain, read-out: Brain T1/2 (converted)
[12] = plasma, read-out: Plasma T1/2 (converted)
[13] = eIF4E Ser209 phosphorylation, Hela cells, 2 hours
[14] = K562, 144 h, 6 days, read-out: IC50 after 6 days of treatment, K562
[15] = K562, 48 hours, read-out: IC50 after 48 hours of treatment, K562
[16] = MV4-11, 144 h, 6 days, read-out: IC50 after 6 days of treatment, MV-4-11
[17] = MV4-11, 48 hours, read-out: IC50 after 48 hours of treatment, MV-4-11
[18] = 144 h, 6 days, read-out: IC50 after 6 days of treatment, D1.1
[19] = 48 hours, read-out: IC50 after 48 hours of treatment, D1.1
[20] = 144 h, 6 days, read-out: IC50 after 6 days of treatment, P116.c139
[21] = 48 hours, read-out: IC50 after 48 hours of treatment, P116.c139

T2 sequence (Q9HBH9 84-388 limits assumed): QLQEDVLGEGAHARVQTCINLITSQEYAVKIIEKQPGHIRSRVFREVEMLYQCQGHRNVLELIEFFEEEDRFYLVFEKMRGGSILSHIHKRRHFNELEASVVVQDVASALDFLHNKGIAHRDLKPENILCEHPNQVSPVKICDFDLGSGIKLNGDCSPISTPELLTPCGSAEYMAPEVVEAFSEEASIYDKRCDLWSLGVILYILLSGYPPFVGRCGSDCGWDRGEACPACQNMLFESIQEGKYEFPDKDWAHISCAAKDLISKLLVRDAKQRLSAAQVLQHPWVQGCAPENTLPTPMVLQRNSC
T1 sequence (Q9BUB5 1-424 isoform Q9BUB5-2): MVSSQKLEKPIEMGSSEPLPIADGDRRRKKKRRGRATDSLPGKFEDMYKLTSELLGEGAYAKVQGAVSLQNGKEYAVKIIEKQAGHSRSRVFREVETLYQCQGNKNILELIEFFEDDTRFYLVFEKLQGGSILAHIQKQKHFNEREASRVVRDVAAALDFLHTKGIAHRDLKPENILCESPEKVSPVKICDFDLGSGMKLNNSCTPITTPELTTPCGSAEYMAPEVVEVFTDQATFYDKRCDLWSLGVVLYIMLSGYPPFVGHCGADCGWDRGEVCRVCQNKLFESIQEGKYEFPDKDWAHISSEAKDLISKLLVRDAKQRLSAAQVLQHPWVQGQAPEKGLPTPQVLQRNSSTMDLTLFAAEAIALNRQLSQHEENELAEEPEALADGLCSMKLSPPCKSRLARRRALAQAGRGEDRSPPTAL

SMILES: CN1CCN(C(=O)c2ccc(-c3cn4c(-c5ccc(C#N)cc5)cnc4cn3)cc2)CC1 [Example 6, 4-(6-(4-(4-methylpiperazine-1-carbonyl)phenyl)imidazo[1,2-a]pyrazin-3-yl)benzonitrile]
IC50 ([2]; HeLa, 2 h): < 1000 nM
eIF4E phosphorylation in K562 (BC-CML cell line), Western blot [3]: prevent eIF4E phosphorylation
eIF4E phosphorylation in BC-CML primary cells, immunofluorescence [4]: prevent eIF4E phosphorylation

SMILES: CC(=O)NC1CCN(C(=O)c2ccc(-c3cn4c(-c5ccc(Cl)cc5)cnc4cn3)cc2)CC1 [Example 49]
IC50 (MNK1): < 1000 nM
IC50 (MNK2): < 1000 nM
IC50 [2, 13]: < 1000 nM

SMILES: CC(=O)Nc1cc(-c2ccc3ncc(-c4ccc(C#N)cc4)n3n2)ccc1C(=O)N1CCOCC1 [Example 80, N-(5-(3-(4-cyanophenyl)imidazo[1,2-b]pyridazin-6-yl)-2-(morpholine-4-carbonyl)phenyl)acetamide]
IC50 (MNK1): < 100 nM
IC50 (MNK2): < 100 nM
IC50 [2, 13]: < 1000 nM

SMILES: CN1CCN(C(=O)c2ccc(-c3ccc4ncc(-c5ccc(O)cc5)n4c3)cc2)CC1 [Example 175, (4-(3-(4-hydroxyphenyl)imidazo[1,2-a]pyridin-6-yl)phenyl)(4-methylpiperazin-1-yl)methanone]
IC50 [5, 14]: 21.2 µM
IC50 [5, 15]: 18.2 µM
change of IC50 when treatment duration was extended from 48 hours to 6 days, K562 [5]: not influenced by the treatment duration
IC50 (MV-4-11 (leukemia); [16]): 300 nM
IC50 (MV-4-11 (leukemia); [17]): 900 nM
change of IC50 when treatment duration was extended from 48 hours to 6 days, D1.1 [6]: not influenced by the treatment duration
IC50 [6, 18]: 10.1 µM
IC50 [6, 19]: 12.3 µM
change of IC50 when treatment duration was extended from 48 hours to 6 days, P116.c139 [7]: decrease the IC50 by more than half-fold
IC50 [7, 20]: 5.7 µM
IC50 [7, 21]: 12.5 µM

SMILES: Cc1ccc(NC(=O)c2ccc(CN3CCN(C)CC3)cc2)cc1Nc1nccc(-c2cccnc2)n1 [imatinib]
eIF4E phosphorylation in BC GMPs [8]: not
accumulation of active nuclear beta-catenin in BC GMPs [9]: not
ability of CD34+ BC cells to serially replate for more than 8 weeks in methylcellulose [10]: only partially impaired

Further lines, with some results ahead:

Brain AUC inf ([1]; brain): 29267 ng·h/g
Brain AUC last ([1]; brain): 29166 ng·h/g
Brain Cmax ([1]; brain): 3967 ng/g
half-life [1, 11]: 158 min
Tmax ([1]; brain, read-out: Brain Tmax): 120 min
Plasma/Brain Ratio [1]: 0.53
AUC(0-inf) ([1]; plasma): 55100 ng·h/mL
AUC(0-t) ([1]; plasma): 54800 ng·h/mL
half-life [1, 12]: 167 min
Tmax ([1]; plasma, read-out: Plasma Tmax): 30 min
Cmax ([1]; plasma): 5970 ng/mL
SMILES: N#Cc1ccc(-c2cnn3ccc(-c4ccc(C(=O)N5CCOCC5)cc4)nc23)cc1 [Entry 8]

Brain AUC inf ([1]; brain): 161 ng·h/g
Brain AUC last ([1]; brain): 156 ng·h/g
Brain Cmax ([1]; brain): 106 ng/g
half-life [1, 11]: 45.6 min
Tmax ([1]; brain, read-out: Brain Tmax): 30 min
Plasma/Brain Ratio [1]: 0.03
AUC(0-inf) ([1]; plasma): 5720 ng·h/mL
AUC(0-t) ([1]; plasma): 5720 ng·h/mL
half-life [1, 12]: 88.2 min
Tmax ([1]; plasma, read-out: Plasma Tmax): 15 min
Cmax ([1]; plasma): 3860 ng/mL
SMILES: CC(=O)Nc1cc(-c2ccc3ncc(-c4ccc(C#N)cc4)n3c2)ccc1C(=O)N1CCOCC1 [Entry 9]

Brain AUC inf ([1]; brain): 775 ng·h/g
Brain AUC last ([1]; brain): 754 ng·h/g
Brain Cmax ([1]; brain): 469 ng/g
half-life [1, 11]: 41.4 min
Tmax ([1]; brain, read-out: Brain Tmax): 60 min
Plasma/Brain Ratio [1]: 0.06
AUC(0-inf) ([1]; plasma): 12800 ng·h/mL
AUC(0-t) ([1]; plasma): 12700 ng·h/mL
half-life [1, 12]: 66.6 min
Tmax ([1]; plasma, read-out: Plasma Tmax): 30 min
Cmax ([1]; plasma): 6400 ng/mL
SMILES: N#Cc1ccc(-c2cnc3cnc(-c4ccc(C(=O)N5CCOCC5)cc4)cn23)cc1 [Entry 10]

IC50 (MNK1): < 100 nM
IC50 (MNK2): < 100 nM
IC50 [2, 13]: < 1000 nM
SMILES: Cc1cc(-c2cn3c(-c4ccc(C#N)cc4)cnc3cn2)ccc1C(=O)N1CCC(N)CC1 [Example 27, 4-(6-(4-(4-aminopiperidine-1-carbonyl)-3-methylphenyl)imidazo [1,2-a]pyrazin-3-yl)benzonitrile]

IC50 (MNK1): < 100 nM
IC50 (MNK2): < 100 nM
IC50 [2, 13]: < 1000 nM
SMILES: N#Cc1ccc(-c2cnc3ccc(-c4ccc(C(=O)N5CCN(c6ccncc6)CC5)cc4)cn23)cc1 [Example 125, 4-(6-(4-(4-(pyridin-4-yl)piperazine-1-carbonyl)phenyl)imidazo[1,2-a]pyridin-3-yl)benzonitrile]

IC50 [2, 13]: < 1000 nM
SMILES: CN1CCN(C2CCN(C(=O)c3ccc(-c4ccc5ncc(-c6ccc(C#N)cc6)n5c4)cc3)CC2)CC1 [Example 133, 4-(6-(4-(4-(4-methylpiperazin-1-yl)piperidine-1-carbonyl)phenyl)imidazo[1,2-a]pyridin-3-yl)benzonitrile]
IC50 [5, 14]: 16 µM
IC50 [5, 15]: 23 µM
change of IC50 when treatment duration was extended from 48 hours to 6 days, K562 [5]: not influenced by the treatment duration
IC50 (MV-4-11 (leukemia); [16]): 1500 nM
IC50 (MV-4-11 (leukemia); [17]): 2800 nM
change of IC50 when treatment duration was extended from 48 hours to 6 days, D1.1 [6]: not influenced by the treatment duration
IC50 [6, 18]: 11.2 µM
IC50 [6, 19]: 15.8 µM
change of IC50 when treatment duration was extended from 48 hours to 6 days, P116.c139 [7]: decrease the IC50 by more than half-fold
IC50 [7, 20]: 4 µM
IC50 [7, 21]: 10.9 µM

From patent publication US20190211020A1 (Agency for Science, Technology and Research, priority 2012, published 2019)
